The text below walks through data of US4665058A, “Compositions and method of treatment for sickle cell anemia” (The University of Kentucky Research Foundation, priority 1985, dated 1987).

Where two headings read alike, the source gives them in different places. Positions of bridges follow the written chain, without caps; N, C: chain ends. No end group written: not given here.

In data set [1] the test system is sickle red blood cells. Conditions: cited from earlier work.
The next data set concerns experimental animals. Conditions: micromolar levels; cited from earlier work.
The conditions of data set [2]: at appropriate levels in the blood stream; cited from earlier work.
Data set [3] is described as follows: Hemolysis of normal human red blood cells (turbidity at 610 nm). It counts as cell-based. The note with it: human, red blood cells, cells 2 hours old, 30 min incubation, approx. 4° C., within 700 sec, n=4. The protocol:
(§1) Human red blood cells were obtained by venepuncture into Na citrate or EDTA vacutainers. They were used directly or stored in serum at 4° C. for various times. Serum and leucocytes were removed by siphoning and the settled red blood cells were washed once and finally made to a 0.15% suspension with isotonic NaCl containing 5 mM KH2 PO4 (pH 6.2). These cells were kept at 2° C. for selected periods of time during a first incubation. From this point on, all experiments were performed in subdued light to protect the light-sensitive phlorizin benzylazide. The phlorizin benzylazide obtained from the synthesis described above was added at the desired concentrations, and during this variable temperature second incubation (2°-4° C. in presence of phlorizin benzylazide), the turbidity of the cell suspension was monitored at 610 nm with a continuously recording spectrophotometer to measure hemolysis. A relatively constant level of absorbance of light indicates decreased hemolysis occurring at the lower dosage and this was verified by concomitant counting of cells with a hemacytometer. Some typical data are shown in FIG. 1 showing the change in absorbance of light (note axis A) when the drug was added (at zero time).
(§2) The dose-response curve of phlorizin benzylazide acting as a hemolytic agent of normal cells is shown in FIG. 3 and the following table:
(§3) In FIG. 3, potency is expressed as the ratio, % hemolysis/t1/2, where t1/2 represents the time (seconds) required to achieve 50% of the total hemolysis produced by the particular concentration of the compound within the time of our measurements (700 sec). The cells used for these experiments were 2 hours old, and subjected to an incubation for 30 minutes before the addition of phlorizin benzylazide and continuing thereafter at approximately 4° C. (n=4). […] Thus, this blood level concentration provides anti-sickling action by reducing the concentration of hemoglobin S with an influx of water and/or salt into the cells. Further, this is accomplished with little or no red blood cell lysis and, therefore, minimum adverse side effects.

Data set [4] concerns normal human red blood cells. The description is as above. It counts as cell-based. Conditions: for t1/2 (time required to achieve 50% of the total hemolysis): approx. 4° C., n=4. The protocol: as §1, §2, §3
Another data set relates to human red blood cells. In words: Red cell swelling / mean cell volume (Coulter Counter). It counts as cell-based. The protocol: as §1
In these experiments (n=2) red cells had been stored in serum for 30 hours, and experienced a first incubation for 60 min at 4° C. and a second incubation with 12.5 μM phlorizin benzylazide at 4° C. for 5 and 10 min. […] The Coulter Counter, an automated instrument which determines the number and volume of cells passing through an analysis chamber, was used to make these measurements.

In data set [5] the test system is sickle red blood cells. In words: Inhibition of sickling induced by deoxygenation in vitro (whole blood of sickle cell disease patients, phase microscopy). It is filed as cell-based, human. Conditions: 12.5 μM, 37° C. The procedure:
Whole blood was obtained from several volunteer sickle cell disease patients and was stored for several days at 4° C. […] Instead, whole blood was diluted into pre-warmed (37° C.) isotonic phosphate-buffered saline (± phlorizin benzylazide, 12.5 μM) which was then deoxygenated by continuous passage of an 100% Argon stream (1 liter/min) over a rotating thin film of the suspended cells. Aliquots were periodically taken, without O2 exposure, and fixed in 1% glutaraldehyde. These samples were then examined under phase microscopy for the degree of sickling by counting fields of at least 100 cells using a single blind, experimental protocol.
The data shown in FIG. 4 illustrate that without phlorizin benzylazide present, about 35-40% of the cells from these patients assumed the typical sickle shape (only cells having a 3:1, length:width ratio were considered to be sickled); whereas, with the phlorizin benzylazide, the deoxygenation caused a maximum increase of 5% more than the 10% of cells already sickled at zero time. Actually, the effect of phlorizin benzylazide is even more dramatic. […] The 10-15% sickled cells present at zero time are probably the so-called irreversibly sickled cells (ISC).

Data set [6] in a line: Absorption and elimination of tritiated compound in rats (blood tritium after intraperitoneal injection). It is filed as in vivo. Conditions: for Cmax: rat approx. 450 g, read-out: peak concentration in the blood. The procedure:
(§4) An animal study was then conducted to determine the absorption and elimination and characteristics of the phlorizin benzylazide and the resulting level of safety. Three adult rats of approximately 450 grams each were injected intraperitoneally at zero time in 1, 2 and 3 mg doses of tritiated phlorizin benzylazide (875,000 cpm/mg). Thereafter, serial tail blood samples were taken at varying times and analyzed for tritium. Maximal absorption of the compound from the peritoneal compartment was slow (note FIG. 5) and maximum blood level concentrations were obtained only after about 20 hours. The initial very rapid entry and elimination of a small fraction of the radioactivity was probably tritiated H2 O and other radioactive impurities. […] The absorption rate constant was estimated to be 0.07 hr^-1. […] This feature could, of course, offer advantages for therapy in a sickle cell crisis wherein long term effectiveness is desired.

A short description of data set [7]: Safety observation in rats (behavior, gross examination, histology). It is filed as in vivo. The procedure:
as §4

In another data set the test system is sugar transporter. In words: Interaction with the sugar (glucose) transporter of human red blood cells. It is filed as biochemical. The text has this:
(§5) From the above, it is clear that a need exists for a safe, effective and clinically useful compound for the treatment of sickle cell anemia. […] After allowing the compound to associate with its specific membrane receptor, activation with light was expected to result in relatively specific, covalent, irreversible labeling of the transporter.

The subject of data set [8] is normal human red blood cells. The data set can be described thus: Initial photoaffinity-labeling experiments: effect on red blood cells before illumination. It counts as cell-based. Conditions: isotonic buffer; time and drug dose-dependent.
Source text: as §5

The next data set has as its system sickle patients. The note with it: low sodium diet; cited from earlier work.
Where [9] appears, read: 16 (head: κ M) phlorizin benzylazide.
[10] abbreviates: 31 (head: κ M) phlorizin benzylazide.
Setting [11] is: 62 (head: κ M) phlorizin benzylazide.
Where [12] appears, read: 12.5 μM, 4° C., 5 and 10 min, n=2 (FIG. 2).

Take `CC[C@@]1([C@@H]2O[C@@H]([C@H]3O[C@@](O)(CO)[C@H](C)C[C@@H]3C)C[C@@H]2C)CC[C@H]([C@]2(C)CC[C@]3(C[C@H](O)[C@@H](C)[C@@H]([C@@H](C)[C@@H](OC)[C@H](C)C(=O)O)O3)O2)O1` [Monensin]: in the data set with sickle red blood cells [1], the “deformability of the red blood cell” value is given as “some improvemement in the deformability of the red blood cell”. In the data set on experimental animals, the toxicity entry is on record as “highly toxic”.
Regarding `O=C(CCc1ccc(O)cc1)c1c(O)cc(O)cc1O` [phloretin], the toxic effects entry in [2] is given as “toxic effects at all sites in the body”.
In [3] (4 (head: κ M) phlorizin benzylazide), `[N-]=[N+]=Nc1ccc(Cc2c(O)cc(O[C@@H]3O[C@H](CO)[C@@H](O)[C@H](O)[C@H]3O)c(C(=O)CCc3ccc(O)cc3)c2O)cc1` [phlorizin benzylazide] showed a hemolysis at 4 µM of 0%. For the same compound, the hemolysis at 8 µM in data set [3] (8 (head: κ M) phlorizin benzylazide) worked out at 0%. The hemolysis at 16 µM in data set [3] (setting [9]) was 31 ± 8.6%. Further, the hemolysis at 31 µM in data set [3] (setting [10]) stood at 41 ± 9.6%. Also, the hemolysis at 62 µM in data set [3] (setting [11]) was determined as 66 ± 8%. In addition, the “t1/2 (time required to achieve 50% of the total hemolysis)” value in [4] (setting [9]) was determined as 7.5 min; in data set [4] (setting [10]) it was 4.33 min; in [4] (setting [11]) it was 3.88 min. The cell lysis entry in data set [4] (concentrations below 10 μM) is listed as “no cell lysis was observed”. Besides, the “cell lysis, extent and rate (FIG. 1)” value in data set [4] (higher vs lower level of phlorizin benzylazide, 2°-4° C.) was “a greater percentage of cell lysis (an absorbance of 0.087 represents 100% lysis) but the rate at which the cells burst was much faster”. The “lysis during swelling experiment” value with human red blood cells (setting [12]) was “essentially no lysis”. Also, the mean cell volume entry in the data set on human red blood cells (setting [12]) is “a time dependent increase in mean cell volume”. The cell swelling result in the data set with human red blood cells (low phlorizin benzylazide levels, approx. 4° C.) was “cell swelling occurred”. Moreover, the “cell shape on deoxygenation” value in the data set with sickle red blood cells [5] (100% Argon) is reported as “a uniform spherocytosis was induced in most cells”. For the same compound, the “maximum increase of sickled cells on deoxygenation, over the 10% already sickled at zero time” value in the data set on sickle red blood cells [5] (100% Argon, without compound about 35-40% sickled (FIG. 4)) stood at 5%. In addition, in the data set on sickle red blood cells [5] (Example 2), the “hemolysis in the deoxygenation experiment” value is on record as “no significant hemolysis”. In addition, the Cmax worked out at 2.5 µM in data set [6] (intraperitoneal, 1 mg); 5.1 µM in data set [6] (intraperitoneal, 2 mg); 6.3 µM in [6] (intraperitoneal, 3 mg). Further, the elimination process entry in [6] (rat, intraperitoneal) is given as “first order process”. In addition, in data set [6] (rat, intraperitoneal), the “mean half life (elimination)” value came to 75 h. In addition, the “maximal absorption from the peritoneal compartment” value in [6] (rat, intraperitoneal (FIG. 5)) is “slow”. In addition, the “time of maximum blood level concentration” value in [6] (rat, intraperitoneal, 1, 2 and 3 mg) is recorded as “about 20 hours”. Further, the absorption rate constant in data set [6] (rat, intraperitoneal, estimated) is 0.07 h⁻¹. For the same compound, in data set [7] (rat, 1, 2 and 3 mg intraperitoneal), the “gross examination of all tissues” value was “unremarkable”. For the same compound, the behavioral abnormalities entry in [7] (rat, 1, 2 and 3 mg intraperitoneal, 5 days (lowest dosage) or 7 weeks) is “None of the animals exhibited any unusual behavioral abnormalities”. For the same compound, the “histological examination of the liver and kidney” value in [7] (rat, two older animals (7 weeks)) was “no pathology”. Also, the “affinity for the sugar transporter” value in the data set on sugar transporter (subdued light) is on record as “high, but reversible”. Further, the “inhibition of the transfer mechanism” value with sugar transporter (sugar transporter) is on record as “potent inhibitor”. For the same compound, the “effect on red blood cells before illumination” value in [8] was “the red blood cells were found to swell and, in a time and drug dose-dependent manner, burst even in an isotonic buffer”.
Consider “anti-diuretic hormone: anti-diuretic hormone given to sickle patients on a low sodium diet to reduce plasma Na+-osmolality (CYFQNCPRG-NH2; disulfide 1-6; UniProt P01185 20-28, looked up)”, for which the “clinical success (reduction of plasma Na+ osmolality / cell hemoglobin S concentration)” value with sickle patients is “very limited success”.
